According to PMC12115342, “Preparation and Evaluation of Tadalafil-Loaded Nanoemulgel for Transdermal Delivery in Cold-Induced Vasoconstriction: A Potential Therapy for Raynaud’s Phenomenon” (Pharmaceutics, 2025):
Converted amounts (≈) assume the structure as drawn. Read-outs that look alike come from different tables or passages of the source.

Legend:
[1] = cited from earlier work
[2] = Equilibrium solubility of TDL in oils, surfactants and cosurfactants; type: physicochemical
Procedure: The equilibrium solubility of TDL in selected oils was measured by adding an excess quantity of the drug to 1 mL of oils (Miglyol® 812 N, Miglyol® 840, Miglyol® 829, triacetin, isopropyl myristate, castor oil, oleic acid, cinnamon oil, N-methyl pyrrolidone) separately in 1.5 mL stoppered glass vials and mixed by a vortex mixer. Samples were further placed at room temperature (25 ± 1 °C) on a shaker (Incu-Shaker, Benchmark Scientific, Edison, NJ, USA) at 180 rpm for 72 h. The mixture was further centrifuged for 15 min at 3000 rpm. The upper supernatant was removed, and the amount of drug was determined using UV analyzer (Jenway, Staffs, UK) at a lambda max of 284 nm. The data presented in Table 1 are the mean values and standard deviations (SDs) for each oil sample, based on three replicates.
The solubility screening of TDL in various surfactants (Tween 80, Span 80, Cremophor RH 40, PEG-400, propylene glycol, isopropyl alcohol, and Transcutol) was performed following the same procedure as the oil screening. The results presented in the article are the mean values and standard deviations (SDs) for surfactant and cosurfactant samples, based on three replicates.

[3] = cited from earlier work; remark: listed apart in the source
[4] = parameters: method as in doi:10.1016/j.jddst.2022.103166; details: cited from earlier work

CCCc1nn(C)c2c(=O)[nH]c(-c3cc(S(=O)(=O)N4CCN(C)CC4)ccc3OCC)nc12 [sildenafil]
half-life [1]: 3.8 h

CN1CC(=O)N2[C@H](c3ccc4c(c3)OCO4)c3[nH]c4ccccc4c3C[C@@H]2C1=O [Tadalafil]
solubility at 72 h ([2]; 25 °C, oil or lipid, thermodynamic from solid, in Castor oil, 25 ± 1 °C, 72 h): 450 ± 30 µg/mL (≈ 1160 µM)
solubility at 72 h ([2]; 25 °C, oil or lipid, thermodynamic from solid, in Cinnamon oil, 25 ± 1 °C, 72 h): 53600 ± 2580 µg/mL (≈ 138000 µM)
solubility at 72 h ([2]; 25 °C, oil or lipid, thermodynamic from solid, in Miglyol 812N, 25 ± 1 °C, 72 h): 330 ± 10 µg/mL (≈ 847 µM)
solubility at 72 h ([2]; 25 °C, oil or lipid, thermodynamic from solid, in Miglyol 829, 25 ± 1 °C, 72 h): 910 ± 140 µg/mL (≈ 2340 µM)
solubility at 72 h ([2]; 25 °C, oil or lipid, thermodynamic from solid, in Miglyol 840, 25 ± 1 °C, 72 h): 290 ± 10 µg/mL (≈ 745 µM)
solubility at 72 h ([2]; 25 °C, oil or lipid, thermodynamic from solid, in Oleic acid, 25 ± 1 °C, 72 h): 190 ± 10 µg/mL (≈ 488 µM)
solubility at 72 h ([2]; 25 °C, oil or lipid, thermodynamic from solid, in Triacetin, 25 ± 1 °C, 72 h): 3830 ± 70 µg/mL (≈ 9840 µM)
solubility at 72 h ([2]; 25 °C, organic solvent or mixture, thermodynamic from solid, in Isopropyl alcohol): 510 ± 10 µg/mL (≈ 1310 µM)
solubility at 72 h ([2]; 25 °C, organic solvent or mixture, thermodynamic from solid, in PEG-400): 14000 ± 1010 µg/mL (≈ 35900 µM)
solubility at 72 h ([2]; 25 °C, organic solvent or mixture, thermodynamic from solid, in Propylene glycol): 840 ± 50 µg/mL (≈ 2160 µM)
solubility at 72 h ([2]; 25 °C, organic solvent or mixture, thermodynamic from solid, in Transcutol): 33400 ± 1320 µg/mL (≈ 85700 µM)
solubility at 72 h ([2]; 25 °C, thermodynamic from solid, in Cremophor RH 40): 27600 ± 1230 µg/mL (≈ 70800 µM)
solubility at 72 h ([2]; 25 °C, thermodynamic from solid, in N-methyl pyrrolidone, 25 ± 1 °C, 72 h): 325000 ± 4560 µg/mL (≈ 835000 µM)
solubility at 72 h ([2]; 25 °C, thermodynamic from solid, in Span 80): 170 ± 30 µg/mL (≈ 437 µM)
solubility at 72 h ([2]; 25 °C, thermodynamic from solid, in Tween 80): 280 ± 10 µg/mL (≈ 719 µM)
solubility at 72 h ([2]; in Cremophor RH 40): ~27600 µg/mL (≈ 70800 µM)
solubility at 72 h ([2]; in Transcutol): ~33400 µg/mL (≈ 85700 µM)
water solubility [3]: 3.2 µg/mL (≈ 8.22 µM)
solubility in water ([3]; lower literature value): 0.73 µg/mL (≈ 1.87 µM)
solubility in water ([3]; upper literature value): 3.48 µg/mL (≈ 8.94 µM)
log p [4]: 2.89
half-life [1]: 15 to 17 h
